Assay results as given in ChEMBL document CHEMBL1144408, “Novel atypical antipsychotic agents: rational design, an efficient palladium-catalyzed route, and pharmacological studies” (J Med Chem, 2005).
Where “and” joins values, the source holds several entries; their conditions need not be identical. Identical values can stand only once.

What was measured:
Rattus norvegicus [1] = test: In vivo effective dose against catalepsy response was determined in rats; format: functional
Rattus norvegicus [2] = test: In vivo effective dose was determined against apomorphine climbing in rats; format: functional
Rattus norvegicus [3] = test: In vivo effective dose of compound against 5-MeO-DMT induced head twitches in rats; format: functional
Rattus norvegicus [4] = test: In vivo effective dose against 5-MeO-DMT-induced head twitches in rats was determined; format: functional
D(3) dopamine receptor = D(3) dopamine receptor (Homo sapiens, UniProt P35462); test: biochemical
Description: Inhibition of [3H]7-OH-DPAT binding to Dopamine D3 receptor expressed in Sf9 cells

Rattus norvegicus [5] = organism: Rattus norvegicus; test: animal or person
Description: In vivo effective dose against conditioned avoidance response was determined in rats

Rattus norvegicus [6] = organism: Rattus norvegicus; test: animal or person; remark: listed apart in the source
Description: In vivo effective dose against spontaneous locomotor activity was determined in rats

D(1A) dopamine receptor = D(1A) dopamine receptor (Rattus norvegicus, UniProt P18901)
Description: Inhibition of [3H]-SCH- 23390 binding to rat dopamine D1 receptor

[7] = target: T1, 5-hydroxytryptamine receptor 2C (Rattus norvegicus, UniProt P08909); test: Inhibition of [3H]mesulergine binding to rat 5-hydroxytryptamine 2C receptor
T1 sequence (P08909 whole entry): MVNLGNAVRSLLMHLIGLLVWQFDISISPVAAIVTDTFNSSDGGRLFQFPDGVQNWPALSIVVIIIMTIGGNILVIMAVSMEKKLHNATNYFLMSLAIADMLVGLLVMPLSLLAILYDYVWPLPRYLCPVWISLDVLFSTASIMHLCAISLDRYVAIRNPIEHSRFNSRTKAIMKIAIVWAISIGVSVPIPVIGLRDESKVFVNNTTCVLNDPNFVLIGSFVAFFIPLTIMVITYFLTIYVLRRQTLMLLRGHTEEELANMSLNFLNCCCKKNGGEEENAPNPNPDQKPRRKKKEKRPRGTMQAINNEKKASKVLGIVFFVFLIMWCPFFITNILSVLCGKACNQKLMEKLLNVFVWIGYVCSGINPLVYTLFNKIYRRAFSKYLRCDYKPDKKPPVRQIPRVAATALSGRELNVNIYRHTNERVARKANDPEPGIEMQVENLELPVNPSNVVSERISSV

D(1A) dopamine receptor, sequence (P18901 whole entry): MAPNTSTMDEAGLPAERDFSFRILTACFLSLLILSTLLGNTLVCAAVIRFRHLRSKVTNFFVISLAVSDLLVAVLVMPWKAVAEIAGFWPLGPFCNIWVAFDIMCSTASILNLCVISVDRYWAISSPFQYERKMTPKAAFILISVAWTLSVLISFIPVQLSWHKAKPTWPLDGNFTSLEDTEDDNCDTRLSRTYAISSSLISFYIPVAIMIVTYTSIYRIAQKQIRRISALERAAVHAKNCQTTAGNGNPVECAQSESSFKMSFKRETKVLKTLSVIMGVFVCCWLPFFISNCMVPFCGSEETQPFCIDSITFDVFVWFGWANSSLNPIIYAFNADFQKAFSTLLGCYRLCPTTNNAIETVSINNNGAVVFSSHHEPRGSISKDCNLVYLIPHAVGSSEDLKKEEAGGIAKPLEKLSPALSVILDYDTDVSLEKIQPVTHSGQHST
D(3) dopamine receptor, sequence (P35462 whole entry): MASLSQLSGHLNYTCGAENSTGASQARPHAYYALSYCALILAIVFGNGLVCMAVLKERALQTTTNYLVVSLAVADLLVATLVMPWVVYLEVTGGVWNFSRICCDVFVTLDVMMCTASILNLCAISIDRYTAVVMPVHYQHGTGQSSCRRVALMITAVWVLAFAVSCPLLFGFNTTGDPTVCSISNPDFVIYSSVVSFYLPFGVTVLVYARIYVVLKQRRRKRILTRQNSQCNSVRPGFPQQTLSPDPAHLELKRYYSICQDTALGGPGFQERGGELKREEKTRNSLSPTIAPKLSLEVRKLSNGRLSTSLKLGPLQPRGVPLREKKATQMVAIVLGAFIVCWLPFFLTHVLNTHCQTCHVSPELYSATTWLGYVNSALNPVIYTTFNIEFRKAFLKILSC

Structure (SMILES)	ED50 (Rattus norvegicus [1])	ED50 (Rattus norvegicus [2])	ED50 (Rattus norvegicus [3])	ED50 (Rattus norvegicus [4])	Ki (D(3) dopamine receptor)	ED50 (Rattus norvegicus [5])	ED50 (Rattus norvegicus [6])	Ki (D(1A) dopamine receptor)	Ki [7]
CN1CCN(C2=Nc3cc(Cl)ccc3Nc3ccccc32)CC1 [CLOZAPINE]	> 100 mg/kg and > 306 µmol/kg	5.72 mg/kg and 17.5 µmol/kg	5.35 mg/kg	16.4 µmol/kg	–	–	–	–	–
CN1CCN(C2=Cc3ccccc3Cn3cccc32)CC1	> 100 mg/kg and > 357 µmol/kg	0.5 µmol/kg and 0.14 mg/kg	0.12 mg/kg	0.43 µmol/kg	224 nM	0.56 mg/kg and 2 µmol/kg	1.6 mg/kg and 5.73 µmol/kg	–	–
CN1CCN(C2=Cn3cccc3Sc3sccc32)CC1	–	–	–	–	25 nM	–	–	4.91 nM	–
Cc1ccc2n1Cc1ccccc1C=C2N1CCN(C)CC1	–	–	–	–	88.6 nM	–	–	230 nM	15 nM
CN1CCN(C2=Cc3cc(Cl)ccc3Cn3cccc32)CC1	–	–	–	–	24.2 nM	–	–	47.4 nM	3.8 nM
CN1CCN(C2=Cn3cccc3Sc3ccccc32)CC1	> 100 mg/kg and > 336 µmol/kg	1.64 mg/kg and 5.51 µmol/kg	1.99 mg/kg	6.69 µmol/kg	–	–	0.51 mg/kg	–	–
